# Results reported in ChEMBL document CHEMBL1137734, “2D- and 3D-QSAR of tocainide and mexiletine analogues acting as Na(v)1.4 channel blockers” (Eur J Med Chem, 2009).
# Molecular target: Sodium channel protein type 4 subunit alpha (Homo sapiens, UniProt P35499)
# Assay: Inhibition of Nav1.4 ion channel assessed as reduction in cumulative sodium current
# Sequence of Sodium channel protein type 4 subunit alpha (P35499 whole entry): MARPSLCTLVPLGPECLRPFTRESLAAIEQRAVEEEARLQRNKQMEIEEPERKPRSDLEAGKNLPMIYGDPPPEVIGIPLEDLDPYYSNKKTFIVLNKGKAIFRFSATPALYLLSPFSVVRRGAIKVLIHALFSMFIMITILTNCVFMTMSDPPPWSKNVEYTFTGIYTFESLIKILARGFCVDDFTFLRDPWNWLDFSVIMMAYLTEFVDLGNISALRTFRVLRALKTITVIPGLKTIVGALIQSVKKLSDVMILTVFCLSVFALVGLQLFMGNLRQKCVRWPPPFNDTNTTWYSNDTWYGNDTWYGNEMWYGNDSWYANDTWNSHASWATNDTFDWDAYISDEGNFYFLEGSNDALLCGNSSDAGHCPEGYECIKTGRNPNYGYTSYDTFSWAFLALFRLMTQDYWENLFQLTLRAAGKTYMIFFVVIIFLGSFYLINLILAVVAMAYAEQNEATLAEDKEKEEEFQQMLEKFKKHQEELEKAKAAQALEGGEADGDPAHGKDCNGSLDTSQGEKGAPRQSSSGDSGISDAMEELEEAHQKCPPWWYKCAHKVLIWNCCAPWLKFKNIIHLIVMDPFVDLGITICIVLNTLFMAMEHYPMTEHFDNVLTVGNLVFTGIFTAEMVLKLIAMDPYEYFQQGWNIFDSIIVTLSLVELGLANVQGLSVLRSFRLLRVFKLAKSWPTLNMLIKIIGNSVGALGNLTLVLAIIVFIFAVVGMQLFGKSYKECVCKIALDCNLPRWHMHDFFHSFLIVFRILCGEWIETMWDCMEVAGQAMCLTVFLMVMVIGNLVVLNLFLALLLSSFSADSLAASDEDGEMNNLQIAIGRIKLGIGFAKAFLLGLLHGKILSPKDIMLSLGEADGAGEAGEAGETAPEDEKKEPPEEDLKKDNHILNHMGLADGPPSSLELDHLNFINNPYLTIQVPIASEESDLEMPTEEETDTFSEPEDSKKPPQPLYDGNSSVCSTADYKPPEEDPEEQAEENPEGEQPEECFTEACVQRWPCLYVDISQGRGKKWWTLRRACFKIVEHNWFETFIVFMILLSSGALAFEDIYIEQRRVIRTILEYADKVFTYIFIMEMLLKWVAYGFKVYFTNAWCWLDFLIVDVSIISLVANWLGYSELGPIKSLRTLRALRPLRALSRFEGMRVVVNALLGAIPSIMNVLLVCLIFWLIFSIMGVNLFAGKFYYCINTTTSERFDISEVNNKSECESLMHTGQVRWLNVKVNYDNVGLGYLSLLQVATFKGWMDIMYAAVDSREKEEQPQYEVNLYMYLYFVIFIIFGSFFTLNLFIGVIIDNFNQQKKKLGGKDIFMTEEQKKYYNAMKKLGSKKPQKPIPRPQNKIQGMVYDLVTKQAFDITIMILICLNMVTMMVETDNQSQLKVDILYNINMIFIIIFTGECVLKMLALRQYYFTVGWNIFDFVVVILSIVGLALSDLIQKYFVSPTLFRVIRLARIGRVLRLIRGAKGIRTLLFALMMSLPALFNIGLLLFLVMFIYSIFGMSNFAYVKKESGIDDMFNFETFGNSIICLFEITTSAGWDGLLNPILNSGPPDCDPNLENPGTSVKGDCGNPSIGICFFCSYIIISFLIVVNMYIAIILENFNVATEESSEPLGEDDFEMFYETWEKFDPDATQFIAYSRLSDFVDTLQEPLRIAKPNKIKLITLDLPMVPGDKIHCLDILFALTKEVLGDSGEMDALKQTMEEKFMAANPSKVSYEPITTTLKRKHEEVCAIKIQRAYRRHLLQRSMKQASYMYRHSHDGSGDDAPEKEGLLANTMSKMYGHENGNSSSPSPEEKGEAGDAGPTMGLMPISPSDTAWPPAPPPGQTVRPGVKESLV
row,Compound,EC50 [µM]
1,Cc1cc(Cl)cc(C)c1OC[C@@H](N)c1ccccc1,7.94
2,N[C@@H](COc1ccccc1)c1ccccc1,3.98
3,N[C@H](COc1ccc(Cl)cc1)c1ccccc1,3.02
4,Cc1cccc(C)c1OC[C@H](N)c1ccccc1,3.02
5,Cc1cccc(C)c1OC[C@@H](N)c1ccccc1,3.02
6,Cc1cc(Cl)cc(C)c1OC[C@H](N)c1ccccc1,19.5
7,Cc1cc(Cl)ccc1OC[C@H](N)c1ccccc1,15.1
8,N[C@H](COc1ccccc1)c1ccccc1,15.8
9,Cc1cccc(C)c1SC[C@@H](C)CN,1.91
10,Cc1cccc(C)c1OC[C@H](N)C(C)C,5.75
11,Cc1cccc(C)c1SC[C@H](C)CN,2.69
12,Cc1cccc(C)c1SC[C@@H](N)c1ccccc1,4.68
13,Cc1cccc(C)c1OC[C@H](C)CN,23.4
14,Cc1cccc(C)c1NC(=O)[C@@H](C)NCc1ccccc1,11.2
15,Cc1cccc(C)c1NC(=O)[C@H](C)NCc1ccccc1,9.12
16,Cc1cccc(C)c1NC(=O)[C@@H]1CCCN1,40.7
17,Cc1cccc(C)c1NC(=O)[C@H]1CCCN1C,67.6
18,Cc1cccc(C)c1NC(=O)[C@@H]1CCCN1C,28.2
19,Cc1cccc(C)c1SC[C@H](N)c1ccccc1,7.08
20,Cc1cccc(C)c1N(C)C(=O)[C@H]1CCCN1C,501

row,Compound,EC50 [µM]
1,Cc1cccc(C)c1N(C)C(=O)[C@H]1CCCN1,219
2,Cc1cccc(C)c1N(C)C(=O)[C@@H]1CCCN1,67.6
3,Cc1cccc(C)c1N(C)C(=O)[C@@H]1CCCN1C,200
4,Cc1cccc(C)c1NC(=O)[C@@H]1CCCN1Cc1ccccc1,10
5,Cc1cccc(C)c1NC(=O)[C@@H]1CCN(Cc2ccccc2)C1,1.7
6,Cc1cccc(C)c1OC[C@@H](C)CN,17.4
7,Cc1cc(Cl)cc(C)c1OC[C@H](C)CN,3.72
8,Cc1cc(Cl)ccc1OC[C@@H](N)Cc1ccccc1,22.9
9,Cc1cccc(C)c1NC(=O)[C@H]1CCN(Cc2ccccc2)C1,2.29
10,Cc1cccc(C)c1OC[C@H](N)Cc1ccccc1,2.4
11,Cc1cccc(C)c1N1CN2CCC[C@@H]2C1=O,501
12,Cc1cc(Cl)cc(C)c1OC[C@@H](C)CN,2.88
13,Cc1cccc(C)c1NC(=O)[C@H]1CCCN1,12
14,Cc1cccc(C)c1NC(=O)[C@H]1CCCN1Cc1ccccc1,31.6
15,Cc1cccc(C)c1OC[C@@H](N)C(C)C (racemic),5.75
16,Cc1cccc(C)c1OC[C@@H](C)N [(R)-MEXILETINE],22.9
17,Cc1cccc(C)c1NC(=O)[C@@H](C)N [(R)-TOCAINIDE],275
18,Cc1cccc(C)c1OC[C@H](C)N [(S)-MEXILETINE],26.9
19,Cc1cccc(C)c1NC(=O)[C@H](C)N [S-TOCAINIDE],224
